From paper PMC6264278, “Corydaline Inhibits Multiple Cytochrome P450 and UDP-Glucuronosyltransferase Enzyme Activities in Human Liver Microsomes” (Molecules, 2011)
Read-outs that look alike come from different tables or passages of the source.

Key:
CYP3A = biological target: T1, CYP3A (Homo sapiens, UniProt P08684); test: CYP3A midazolam 1'-hydroxylation inhibition, cocktail assay in pooled human liver microsomes; assay type: in vitro ADME; conditions: 2.5 μM midazolam
T1 construct: using pooled human liver microsomes; tissue BD Gentest Co. H161; host or cells: pooled human liver microsomes
T1 sequence (P08684 2-503): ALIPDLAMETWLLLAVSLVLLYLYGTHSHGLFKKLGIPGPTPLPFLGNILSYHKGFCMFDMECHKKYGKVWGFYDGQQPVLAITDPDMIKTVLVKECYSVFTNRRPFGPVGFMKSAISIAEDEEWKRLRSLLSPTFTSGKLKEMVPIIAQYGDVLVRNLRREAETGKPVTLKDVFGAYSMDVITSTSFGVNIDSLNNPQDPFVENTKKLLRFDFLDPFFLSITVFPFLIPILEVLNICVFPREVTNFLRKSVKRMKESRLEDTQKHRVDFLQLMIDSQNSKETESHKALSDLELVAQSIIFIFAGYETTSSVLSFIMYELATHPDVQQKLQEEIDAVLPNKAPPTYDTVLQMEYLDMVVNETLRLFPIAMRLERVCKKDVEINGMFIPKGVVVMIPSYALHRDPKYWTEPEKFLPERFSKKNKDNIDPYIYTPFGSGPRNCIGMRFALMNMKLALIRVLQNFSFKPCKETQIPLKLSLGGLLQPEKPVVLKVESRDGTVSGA
Protocol: (§1) Phenacetin O-deethylase, coumarin 7-hydroxylase, amodiaquine N-deethylase, diclofenac 4-hydroxylase, S-mephenytoin 4-hydroxylase, bufuralol hydroxylase, and midazolam 1’-hydroxylase activities were determined as probe activities for CYP1A2, CYP2A6, CYP2C8, CYP2C9, CYP2C19, CYP2D6, and CYP3A4, respectively, using cocktail incubation and liquid chromatography-tandem mass spectrometry (LC/MS/MS). The incubation mixtures were prepared in a total volume of 200 μL, as follows: pooled human liver microsomes (0.25 mg/mL), 1.3 mM NADPH, 3.3 mM MgCl2, 50 mM potassium phosphate buffer (pH 7.4), and a cocktail of probe substrates and various concentrations of corydaline (1−200 μM). The substrates were used at concentrations approximately equal to their respective Km values: 50 μM phenacetin, 2.5 μM coumarin, 2.5 μM amodiaquine, 10 μM diclofenac, 100 μM S-mephenytoin, 5 μM bufuralol, and 2.5 μM midazolam. After a 3-min pre-incubation period at 37 °C, the reactions were initiated by addition of an NADP generating system and incubated for 20 min at 37 °C in a shaking water bath. After incubation, the reaction was stopped by placement of the tubes on ice and addition of 100 μL of ice-cold methanol containing internal standards (^13C2,^15N-acetaminophen for acetaminophen and N-desethylamodiaquine, d5-7-hydroxycoumarin for 7-hydroxycoumarin, ^13C6-4-hydroxydiclofenac for 4-hydroxydiclofenac, d3-4-hydroxy-mephenytoin for 4-hydroxymephenytoin and hydroxymidazolam, d9-1-hydroxybufuralol for 1-hydroxybufuralol). The incubation mixtures were then centrifuged at 13,000 × g for 5 min. All incubations were performed in triplicate and the mean values were used. […] The reaction was started by addition of a cocktail of CYP probe substrates.
All 7 metabolites produced from the cocktail of CYP isoform-specific substrates were simultaneously determined by LC/MS/MS [25]. […] Quantification was performed by selected reaction monitoring (SRM) of the [M+H]^+ ion and the related product ion for each metabolite. […]

CYP2D6 = biological target: T2, CYP2D6 (Homo sapiens, UniProt P10635); test: CYP2D6 bufuralol 1'-hydroxylation inhibition in pooled human liver microsomes; assay type: in vitro ADME; conditions: for inhibition mode, CYP2D6 bufuralol 1'-hydroxylation: Lineweaver, Dixon and secondary reciprocal plots; for IC50: 5.0 μM bufuralol, mean ± SD, n = 3
T2 construct: using pooled human liver microsomes; tissue BD Gentest Co. H161; host or cells: pooled human liver microsomes
T2 sequence (P10635 whole entry): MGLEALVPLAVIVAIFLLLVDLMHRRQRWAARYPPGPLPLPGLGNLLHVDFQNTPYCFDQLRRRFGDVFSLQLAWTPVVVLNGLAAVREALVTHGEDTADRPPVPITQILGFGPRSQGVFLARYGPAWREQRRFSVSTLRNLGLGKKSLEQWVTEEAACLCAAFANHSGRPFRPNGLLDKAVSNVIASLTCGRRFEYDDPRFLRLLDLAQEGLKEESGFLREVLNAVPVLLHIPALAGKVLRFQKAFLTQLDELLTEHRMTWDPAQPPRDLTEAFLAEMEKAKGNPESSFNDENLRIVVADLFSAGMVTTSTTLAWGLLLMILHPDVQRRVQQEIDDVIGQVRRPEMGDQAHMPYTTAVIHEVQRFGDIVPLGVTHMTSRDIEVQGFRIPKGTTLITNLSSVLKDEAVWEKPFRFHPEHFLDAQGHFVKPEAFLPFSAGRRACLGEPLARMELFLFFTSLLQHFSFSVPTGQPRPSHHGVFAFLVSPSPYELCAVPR
Protocol: as §1
All 7 metabolites produced from the cocktail of CYP isoform-specific substrates were simultaneously determined by LC/MS/MS [25]. The system consisted of a tandem quadrupole mass spectrometer (TSQ Quantum Access, ThermoFisher Scientific, San Jose, CA, USA) coupled with a Nanospace SI-2 LC system. Separation was performed on an Atlantis dC18 column (5 μm, 2.1 mm i.d. ×100 mm, Waters, Milford, MA, USA) using the gradient elution of a mixture of 5% methanol in 0.1% formic acid (mobile phase A) and 95% methanol in 0.1% formic acid (mobile phase B) at a flow rate of 0.25 mL/min: 10% mobile phase B for 1 min, 10% to 95% mobile phase B for 1 min, 95% mobile phase B for 5 min. The column and autosampler temperatures were 50 and 6 °C, respectively. After 1.5 min, the LC eluent was diverted from waste to the mass spectrometer fitted with the electrospray ionization (ESI) source and operated in positive ion mode. […] Quantification was performed by selected reaction monitoring (SRM) of the [M+H]^+ ion and the related product ion for each metabolite. […]
Reactions were initiated by addition of NADPH at 37 °C and stopped after 15 min by placement of the incubation tubes on ice and addition of ice-cold methanol (100 μL) containing an internal standard (2.0 μg/mL ^13C6-4-hydroxydiclofenac for diclofenac, 0.5 μg/mL d3-4-hydroxymephenytoin for mephenytoin, or 0.5 μg/mL d9-1-hydroxy-bufuralol for bufuralol). The incubation mixtures were centrifuged at 13,000 × g for 5 min, and aliquots (5 μL) of the supernatants were analyzed by LC/MS/MS. […] Aliquots (5 μL) were analyzed by LC/MS/MS. […]

IC50 no preincubation, CYP3A midazolam 1'-hydroxylation (CYP3A; pooled human liver microsomes (H161)): negligible inhibition
IC50 (CYP3A; pooled human liver microsomes (H161), read-out: IC50 no preincubation, CYP3A midazolam 1'-hydroxylation): > 200 µM
IC50 (CYP3A; pre-incubated 30 min with NADPH, mean ± SD, n = 3, read-out: IC50 with preincubation, CYP3A midazolam 1'-hydroxylation): 67.4 ± 9.8 µM
inhibition mode, CYP2D6 bufuralol 1'-hydroxylation (CYP2D6): competitively
inhibition mode, CYP2D6 bufuralol 1'-hydroxylation (CYP2D6; listed as corydaline): competitive
Ki (CYP2D6; human liver microsomes, 0.5-5 μM bufuralol): 27.3 ± 0.7 µM
IC50 (CYP2D6; pooled human liver microsomes (H161), read-out: IC50 no preincubation, CYP2D6 bufuralol 1'-hydroxylation): 64.5 ± 9.8 µM
IC50 (CYP2D6; pre-incubated 30 min with NADPH, read-out: IC50 with preincubation, CYP2D6 bufuralol 1'-hydroxylation): 116 ± 7.6 µM
Structure (SMILES): COc1cc2c(cc1OC)C1C(C)c3ccc(OC)c(OC)c3CN1CC2 (centres unmarked) [Corydaline, 2,3,9,10-tetramethoxy-13-methyl-5,8,13,13a-tetrahydro-6H-isoquino[3,2-a]isoquinoline]
